This is an account of results in ChEMBL document CHEMBL5143673, “The evaluation of N-propargylamine-2-aminotetralin as an inhibitor of monoamine oxidase” (Bioorg Med Chem Lett, 2022).

Series [1] has as its target T1, Amine oxidase [flavin-containing] B (Rattus norvegicus, UniProt P19643).
T1 sequence (P19643 whole entry): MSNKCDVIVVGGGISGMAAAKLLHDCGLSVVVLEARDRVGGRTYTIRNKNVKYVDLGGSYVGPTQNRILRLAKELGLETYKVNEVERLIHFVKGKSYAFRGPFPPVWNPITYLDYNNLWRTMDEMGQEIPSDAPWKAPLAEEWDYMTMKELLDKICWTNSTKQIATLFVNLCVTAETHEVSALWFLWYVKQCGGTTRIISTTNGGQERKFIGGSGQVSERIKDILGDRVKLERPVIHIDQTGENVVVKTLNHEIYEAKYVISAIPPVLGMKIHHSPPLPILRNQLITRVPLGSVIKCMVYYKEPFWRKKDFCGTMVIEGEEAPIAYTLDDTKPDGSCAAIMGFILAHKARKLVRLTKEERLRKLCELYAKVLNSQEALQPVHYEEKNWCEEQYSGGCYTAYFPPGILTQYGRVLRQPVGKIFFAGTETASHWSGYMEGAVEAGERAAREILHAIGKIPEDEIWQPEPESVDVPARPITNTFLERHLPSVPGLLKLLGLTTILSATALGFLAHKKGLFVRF
As to the kind of experiment: Inhibition of rat brain MAOB using kynuramine substrate by fluorescence spectrophotometry.

Series [2] has as its target T2, Amine oxidase [flavin-containing] A (Rattus norvegicus, UniProt P21396).
T2 sequence (P21396 whole entry): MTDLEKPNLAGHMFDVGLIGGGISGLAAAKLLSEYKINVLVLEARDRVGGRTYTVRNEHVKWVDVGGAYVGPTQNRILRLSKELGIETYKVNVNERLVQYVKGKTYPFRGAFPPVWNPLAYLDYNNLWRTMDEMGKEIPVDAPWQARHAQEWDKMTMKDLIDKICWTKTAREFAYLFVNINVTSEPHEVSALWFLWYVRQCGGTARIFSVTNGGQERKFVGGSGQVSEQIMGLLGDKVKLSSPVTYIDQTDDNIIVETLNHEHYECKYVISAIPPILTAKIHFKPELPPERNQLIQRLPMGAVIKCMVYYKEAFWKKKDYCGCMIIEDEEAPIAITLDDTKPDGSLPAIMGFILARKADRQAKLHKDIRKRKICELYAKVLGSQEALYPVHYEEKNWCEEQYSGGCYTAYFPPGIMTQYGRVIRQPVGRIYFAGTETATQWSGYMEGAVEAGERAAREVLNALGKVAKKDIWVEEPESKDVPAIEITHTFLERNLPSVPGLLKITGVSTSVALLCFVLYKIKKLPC
As to the kind of experiment: Inhibition of rat brain MAOA using kynuramine substrate by fluorescence spectrophotometry. It is filed as toxicity.

The species named for another series is Rattus norvegicus. In words: Selectivity index, ratio of IC50 for inhibition of rat brain MAOA to IC50 for rat brain MAOB.
For series [3], the target named is T3, Amine oxidase [flavin-containing] B (Homo sapiens, UniProt P27338).
T3 sequence (P27338 whole entry): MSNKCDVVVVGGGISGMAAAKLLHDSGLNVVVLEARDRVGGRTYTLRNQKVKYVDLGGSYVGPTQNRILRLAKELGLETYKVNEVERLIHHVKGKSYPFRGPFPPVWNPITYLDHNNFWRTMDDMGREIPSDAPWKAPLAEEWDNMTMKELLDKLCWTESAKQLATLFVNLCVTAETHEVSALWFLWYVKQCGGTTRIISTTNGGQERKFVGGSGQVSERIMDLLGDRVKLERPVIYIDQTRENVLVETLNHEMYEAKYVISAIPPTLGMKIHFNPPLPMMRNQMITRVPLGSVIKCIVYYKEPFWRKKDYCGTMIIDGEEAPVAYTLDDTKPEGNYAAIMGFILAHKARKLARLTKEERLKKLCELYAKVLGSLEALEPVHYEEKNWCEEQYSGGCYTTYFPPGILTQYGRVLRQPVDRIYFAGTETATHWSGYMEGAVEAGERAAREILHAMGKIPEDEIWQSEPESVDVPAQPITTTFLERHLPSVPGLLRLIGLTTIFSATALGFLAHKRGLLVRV
As to the kind of experiment: Time dependent inhibition of human recombinant MAOB at 0.25 to 1.25 uM using kynuramine substrate by fluorescence spectrophotometry based graphing of slopes of Lineweaver-Burk plots versus inhibitor concentration.

Series [4] deals with T4, Amine oxidase [flavin-containing] A (Homo sapiens, UniProt P21397).
T4 sequence (P21397 whole entry): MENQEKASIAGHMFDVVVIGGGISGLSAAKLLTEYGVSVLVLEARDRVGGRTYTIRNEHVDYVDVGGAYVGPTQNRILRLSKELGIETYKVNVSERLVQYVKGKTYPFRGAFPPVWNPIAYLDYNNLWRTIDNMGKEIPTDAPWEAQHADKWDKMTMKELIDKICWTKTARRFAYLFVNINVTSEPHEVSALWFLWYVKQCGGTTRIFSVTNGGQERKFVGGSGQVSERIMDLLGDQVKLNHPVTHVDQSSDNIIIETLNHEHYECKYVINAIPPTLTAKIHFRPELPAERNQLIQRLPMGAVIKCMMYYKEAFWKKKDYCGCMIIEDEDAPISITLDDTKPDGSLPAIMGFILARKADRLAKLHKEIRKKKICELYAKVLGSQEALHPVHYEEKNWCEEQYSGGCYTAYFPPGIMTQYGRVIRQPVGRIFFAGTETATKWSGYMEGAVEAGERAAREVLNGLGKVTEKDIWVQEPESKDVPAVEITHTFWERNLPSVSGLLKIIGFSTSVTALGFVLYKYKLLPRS
In words: Inhibition of human recombinant MAOA using kynuramine substrate incubated for 20 mins by fluorescence spectrophotometry. It is filed as toxicity.

In series [5] the target is T5, MAO-A (Homo sapiens, UniProt P21397).
T5 sequence (P21397 whole entry): T4 sequence (P21397 whole entry)
As to the kind of experiment: Resistance index, ratio of IC50 for toloxatone to IC50 for test compound for inhibition of human recombinant MAOA using kynuramine substrate incubated for 20 mins by fluorescence spectrophotometry. It counts as toxicity. The note with it: probe kynuramine, read-out: Ratio IC50.

Series [6] has as its target T3, Amine oxidase [flavin-containing] B. As to the kind of experiment: Time dependent inhibition of human recombinant MAOB at 0.25 to 1.25 uM using kynuramine substrate by fluorescence spectrophotometry based L-B plot analysis.
Series [7] shares this target. In words: Time dependent inhibition of human recombinant MAOB at […] using kynuramine substrate incubated for 5 to 35 mins by fluorescence spectrophotometry. As to conditions: TDE = time-dependent effect, time 5-35 min.
The target in series [8] is T5, MAO-A. In words: Inhibition of human recombinant MAOA assessed as enzyme activity recovery level at 4 times IC50 using kynuramine substrate incubated for 15 mins followed by 24 hrs dialysis by fluorescence spectrophotometry. It counts as toxicity. The arrangement: scale not given: the % may be the effect or the level left. As to conditions: probe kynuramine, read-out: Activity.

For series [9], the target named is T3, Amine oxidase [flavin-containing] B. In words: Inhibition of human recombinant MAOB assessed as enzyme activity recovery level at 4 times IC50 using kynuramine substrate incubated for 15 mins followed by 24 hrs dialysis by fluorescence spectrophotometry. The arrangement: scale not given: the % may be the effect or the level left. As to conditions: 0.25 h.
The species entered for the next series is Homo sapiens. As to the kind of experiment: Selectivity index, ratio of IC50 for inhibition of human recombinant MAOA to IC50 for human recombinant MAOB.
Series [10] has as its target T3, Amine oxidase [flavin-containing] B. In words: Inhibition of human recombinant MAOB using kynuramine substrate incubated for 20 mins by fluorescence spectrophotometry.
Series [11] has the same target. In words: Inhibition of human recombinant MAOB assessed as enzyme activity recovery level at 4 times IC50 using kynuramine substrate incubated for 15 mins followed by without dialysis by fluorescence spectrophotometry. The arrangement: scale not given: the % may be the effect or the level left. As to conditions: 0.25 h.
Series [12] addresses T5, MAO-A. In words: Inhibition of human recombinant MAOA assessed as enzyme activity recovery level at 4 times IC50 using kynuramine substrate incubated for 15 mins followed by without dialysis by fluorescence spectrophotometry. As to conditions: probe kynuramine, read-out: Activity. The arrangement: scale not given: the % may be the effect or the level left. It is filed as toxicity.

Series [13] concerns the target T5, MAO-A. As to the kind of experiment: Inhibition of human recombinant MAOA assessed as enzyme activity recovery level using kynuramine substrate incubated for 15 mins followed by 24 hrs dialysis by fluorescence spectrophotometry. It counts as toxicity. The arrangement: scale not given: the % may be the effect or the level left. As to conditions: probe kynuramine, read-out: Activity.

The structures appear in SMILES notation. pIC50, pKi: −log10 of the molar value.

In the case of `C#CCN(C)C1CCc2ccccc2C1` (racemic) [listing 1 of 2 here], the pIC50 in [1] was 7.39; in series [2] it was 7.29.

Take `C#CCN(C)C1CCc2ccccc2C1` (racemic) [listing 2 of 2 here]: the Ratio IC50 in the series filed under Rattus norvegicus was determined as 1.2.

With `C#CCN(C)C1CCc2ccccc2C1` (single isomer, unassigned; (+)) [listing 1 of 2 here], the Ratio IC50 in the series listed under Rattus norvegicus amounted to 8.8.

In the case of `C#CCNC1CCc2ccccc2C1` (racemic), the figures for the pKi in series [3] and in series [6] were 6.36 and 6.34, respectively. The pIC50 was 6.14 in series [4] and 4.84 in series [10]. Moreover, the selectivity ratio at 20 min at MAO-A [5] amounted to 5. Also, the TDI entry in [7] is on record as “Tde”. The activity at 0.25 h on MAO-A [8] stood at 102%; at MAO-A [12], 46%. The Activity in series [9] came to 7.5%; in [11] it was 0.3%. Moreover, in the series filed under Homo sapiens, the Ratio IC50 was determined as 0.05.

As to `C#CCN(C)C1CCc2ccccc2C1` (single isomer, unassigned; (-)) [listing 1 of 2 here], the negative logarithm of the IC50 (pIC50) in series [1] is 7.06; in series [2], 7.34.

On to `C#CCN(C)Cc1ccccc1` [PARGYLINE], for which the activity at 0.25 h at MAO-A [13] came to 0.9%.

Take `C#CCN(C)C1CCc2ccccc2C1` (single isomer, unassigned; (-)) [listing 2 of 2 here]: the Ratio IC50 in the series filed under Rattus norvegicus worked out at 0.5.

As to `C#CCN(C)C1CCc2ccccc2C1` (single isomer, unassigned; (+)) [listing 2 of 2 here], the pIC50 in [1] is 7.80; in series [2] it was 6.85.
